Reference: PubChem BioAssay AID2060891 (Molecular Pharmacology Branch, DTP, NCI, 2025)
Several values for one entry are separate records, joined by “and”; a condition that tells them apart may be missing. Equal values may be shown once.

Tested on: K98450-129-R-PDC complex spheroid growth, percent test/control
Assay: Anticancer human tumor K98450-129-R-PDC patient-derived colon adenocarcinoma cell line growth inhibition [RAS]
Details: for viability, T/C: stronger effect = lower value
From the text: RAS pathway inhibitors in Combinations in Complex Spheroids
A high-throughput screen of multi-cell type tumor spheroids was designed to identify active combinations of RAS pathway inhibitors and targeted small molecules. Complex spheroids include a stromal component modeled by human endothelial cells (HUVEC) and fibroblasts modeled by human mesenchymal stem cells (MSCs). The concentration ranges selected for each drug and investigational agent were based upon clinically achievable concentrations if the clinical Cmax of the agent was known.
Compounds. The drugs and investigational agents: abemaciclib (NSC768073), cobimetinib (NSC768068), divarasib (GDC6063, NSC841802), docetaxel (NSC628503), GDC-1971 (RLY-1971, NSC841576), gemcitabine (NSC613327), inavolisib (NSC800729), ipatasertib (NSC767898), KB-0742 (NSC834161), MRTX-1133 (NSC836407), osimertinib (NSC779217), RMC-4630 (NSC839698), RMC-6236 (NSC851965), RMC-6291 (NSC852671), Ro-3306 (NSC812927), sapanisertib (NSC764658), SN-38 (NSC673596), staurosporine (NSC755774), SY5609 (NSC837396), and tovorafenib (DAY101, NSC766906), were obtained from the National Cancer Institute (NCI) Developmental Therapeutics Program Chemical Repository. The FDA-approved anticancer drug set is available from the NCI Developmental Therapeutics Program. […] The stock solutions were prepared in dimethyl sulfoxide (DMSO, Sigma-Aldrich, St. Louis, MO, cat. D2650) at 800-fold the tested concentration and stored at -70 degrees C prior to their use. All drugs and investigational agents were tested over a range starting from a high concentration at or near the clinical Cmax and decreasing in half-log increments. If the clinical Cmax for an agent had not been determined, the highest concentration tested was 10 microM.
Cell Culture. All cells were maintained in an incubator at 37 degrees C and 5% CO2 with 95% humidity. The PDC lines were cultured according to standard operating procedures established by the NCI PDMR. All PDCs were thawed and cultured in Matrigel-coated flasks prepared with a working solution of 1X Ham's F-12 nutrient mix, without supplementation (Invitrogen, Waltham, MA, cat. 11765054), 100 U/mL penicillin-streptomycin (Invitrogen, cat. 15140122), and 2.5% Matrigel (Corning Inc., Corning, NY, cat. 354248) for the first three passages. The 362531-283-R-J2-PDC and 782815-120-R-J1-PDC lines were cultured in 6C/Colon 1B media, which includes advanced DMEM/F-12 (Thermo Fisher Scientific, cat. 12634028), 10 mM HEPES (Thermo Fisher Scientific, cat. 15630080), 1X GlutaMAX supplement (Thermo Fisher Scientific, cat. 35050061), 0.1 mg/mL primocin (InvivoGen, San Diego, CA, cat. ant-pm-2), 10% defined fetal bovine serum, heat inactivated (HyClone Laboratories Inc., Logan, UT, cat. SH30070.03HI), 50% L-WRN conditioned media (ATCC, cat. CRL-3276), 1.25 mM N-Acetyl-L-cysteine (Sigma-Aldrich, cat. A9165), 10 mM nicotinamide (Sigma-Aldrich, cat. N0636), 1X B-27 supplement (Thermo Fisher Scientific, cat. 17504044), 1X N-2 supplement (Thermo Fisher Scientific, cat. 17502048), 50 ng/mL human EGF (Thermo Fisher Scientific, cat. PHG0311), and 10 microM Y-27632 dihydrochloride (Tocris Bioscience, cat. 1254). The K12877-001-R-J1-PDC line was cultured in 6I media, which includes all 6C/Colon 1B media plus 10 ng/mL human FGF-10 (PeproTech, cat. 100-26), 1 ng/mL human FGF-2 (PeproTech, cat. 100-18B), 1 µM prostaglandin E2 (Tocris Bioscience, cat. 2296), […] hydrocortisone (Sigma-Aldrich, cat. H4001), and […] bovine insulin (Sigma-Aldrich, cat. I6634). The K86415-001-R-J1-PDC line was cultured in 6D media, which includes all 6C/Colon 1B media components minus the L-WRN conditioned media. The 485176-168-R4-J1-PDC was cultured in PANC media, which includes all 6C/Colon 1B media plus 100 ng/mL human FGF-10 (PeproTech, cat. 100-26), 500 nM SB-431542 (Selleckchem, cat. S1067), and 10 nM gastrin (Tocris Bioscience, cat. 3006). […]
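Further: spheroids exposed to agents for seven days before the viability readout.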
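Wherever viability, T/C is given: luminescence used as a proxy for viable cell amount.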

Compound | viability, T/C (compound 0.0316 µM) | viability, T/C (compound 0.1 µM) | viability, T/C (compound 0.316 µM) | viability, T/C (compound 1 µM) | viability, T/C (compound 3.16 µM) | viability, T/C (compound 10 µM) | IC50 (curve of compound) | viability, T/C (compound 0.000949 µM) | viability, T/C (compound 0.003 µM) | viability, T/C (compound 0.00949 µM) | viability, T/C (compound 0.03 µM) | viability, T/C (compound 0.0949 µM) | viability, T/C (compound 0.3 µM) | viability, T/C (compound 0.00316 µM) | viability, T/C (compound 0.01 µM) | IC50 (compound alone, run of 05/20/2024)
CC(Nc1ccc2c(c1)OCCn1cc(N3C(=O)OCC3C(F)F)nc1-2)C(N)=O (configuration not stated) | 99.5% [middle of 4 runs] | 91.6% [middle of 4 runs] | 91.2% [middle of 4 runs] | 88.9% [middle of 4 runs] | 81.3% [middle of 4 runs] | 73.7% [middle of 4 runs] | > 10000 nM |  |  |  |  |  |  |  |  | 
CC1(C)CCC(Nc2ncc(C(F)(F)F)c(-c3c[nH]c4c(P(C)(C)=O)c(C#N)ccc34)n2)CN1 (configuration not stated) |  |  |  |  |  |  | > 300 nM | 105% [middle of 4 runs] | 105% (2×) and 98.6% and 96.4% | 106% [middle of 4 runs] | 107% (2×) and 109% and 99.9% | 94.4% [middle of 4 runs] | 86.1% [middle of 4 runs] |  |  | 
CCN1CCN(Cc2ccc(Nc3ncc(F)c(-c4cc(F)c5nc(C)n(C(C)C)c5c4)n3)nc2)CC1 | 96.8% [middle of 4 runs] | 97.3% [middle of 4 runs] |  |  |  |  | > 1000 nM |  |  |  |  |  |  | 103% [middle of 4 runs] | 99.4% [middle of 4 runs] | 
CCc1c2c(nc3ccc(O)cc13)-c1cc3c(c(=O)n1C2)COC(=O)[C@]3(O)CC |  |  |  |  |  |  | 48.9 nM and > 300 nM and 43.1 nM | 104% [middle of 4 runs] | 97.8% [middle of 4 runs] | 92.5% [middle of 4 runs] | 69% [middle of 4 runs] |  | 49.5% [middle of 4 runs] |  |  | 
CCn1c(-c2cc(N3CCN(C)CC3)cnc2C(C)OC)c2c3cc(ccc31)-c1csc(n1)CC(NC(=O)C1CC1C)C(=O)N1CCCC(N1)C(=O)OCC(C)(C)C2 (configuration not stated) |  |  |  |  |  |  |  | 93.1% [middle of 8 runs] | 86.4% [middle of 8 runs] |  | 56.8% [middle of 8 runs] | 23.6% [middle of 8 runs] | 14.1% [middle of 8 runs] |  |  | 35 nM [middle of 8 runs]
CCn1c(-c2cccnc2C(C)OC)c2c3cc(ccc31)N1CCOC(CC(NC(=O)C(C(C)C)N(C)C(=O)C3(F)CCN(C(=O)C#CC(C)(C)N(C)C)CC3)C(=O)N3CCCC(N3)C(=O)OCC(C)(C)C2)C1 (configuration not stated) |  |  |  |  |  |  |  | 78.5% [middle of 8 runs] | 63.4% [middle of 8 runs] | 47.8% [middle of 8 runs] | 43.1% [middle of 8 runs] | 41.6% [middle of 8 runs] | 35.3% [middle of 8 runs] |  |  | 
Nc1ccn(C2OC(CO)C(O)C2(F)F)c(=O)n1 (configuration not stated) | 78.8% [middle of 4 runs] |  |  | 49.4% [middle of 4 runs] |  |  |  |  |  |  |  |  |  | 80.7% and 103% (2×) and 107% | 96.2% [middle of 4 runs] | 
O=C(c1ccc(F)c(F)c1Nc1ccc(I)cc1F)N1CC(O)([C@@H]2CCCCN2)C1 | 97.5% [middle of 4 runs] | 82.3% [middle of 4 runs] | 21.8% [middle of 4 runs] | 3.22% [middle of 4 runs] |  |  | 190 nM [middle of 4 runs] |  |  |  |  |  |  | 103% [middle of 4 runs] |  | 
